What was measured:
[1] = Stability of ligands, imines, intermediates and catalysts (temperature, air, moisture, solvents); type: physicochemical; conditions: exposure to air
[2] = Catalytic oxidation of diphenylmethane into benzophenone; conditions: yields by flash column chromatography and mass calculation
Description: The conversion of diphenylmethane into benzophenone was selected to test the activity of catalyst salquCu 1 and to develop optimized conditions, Based on previous reports with salphCu, three equivalents of H2O2 in CH3CN as solvent with 1% by molar of the catalyst salquCu 1 was heated to reflux temperature for 18 hours. Under these conditions, the isolated yield of benzophenone was only 27%. Six experimental factors were considered to optimizing this reaction: oxidant (FIG. 7), catalyst ratio (FIG. 8), reaction time (FIG. 9), oxidant ratio (FIG. 10), solvent, and types of catalyst (FIG. 11 and Table 10).
First, four oxidants were tested using CH3CN as solvent in each case, with 1% of catalyst 1 at reflux temperature for 18 hours. […] When tert-butylhydroperoxide in water was used as the oxidant, the yield of product, benzophenone, was around 80%. (FIG. 7) The use of tert-butylhydroperoxide in decane allows for a uniform or monophasic organic soluble catalyst system, and thus further improves the optimal yield. […]
The synthesis of the products depicted in Table 11 began with the combination of catalyst 1 (0.02 mmol, 15.2 mg) and 2.0 mmol of starting material (aryl methylene compound) dissolved in 2.0 mL acetonitrile with 1.0 mL tert-butylhydroperoxide decane solution (6.0 mmol). The reaction mixture was allowed to stir for 18 hours at 70° C. and monitored by TLC. […]

Nc1cc2ncc(O)nc2cc1N [Intermediate 1e]
stability in air / atmospheric conditions [1]: not stable and was found to decompose on exposure to air | Yield (%) of benzophenone, optimized conditions with different salquCu catalysts [2]: 90%

From patent US8445678B2, “2-quinoxalinol salen compounds and uses thereof” (Auburn University, priority 2008, dated 2013)
